Structures are written as SMILES. pIC50: −log10 of the molar value.

The target of this assay is T1, human intermediate-conductance, calcium-activated K+ channels (h-IK1) (Homo sapiens, UniProt O15554).
T1 construct: expressed in transfected cells; host or cells: CHO-K1 (ATCC CCL-61), kept under G-418 selection
Kind of assay: Rubidium efflux assay (86Rb+ efflux, CHO-K1 cells expressing h-IK1). The assay is classed as cell-based. Particulars: hIK1 in CHO-K1 cells; 86Rb+ efflux stimulated with ionomycin; drug 0.01-30 μM, 6 min preincubation, 10 min efflux; read-out: IK1 Inhibitory Activity. The method, then:
CHO-K1 cells (American Type Culture Collection, CCL-61) expressing human intermediate-conductance, calcium-activated K^+ channels (h-IK1) are cultured in Ham's F-12 medium (HyClone) supplemented with 10% heat inactivated fetal bovine serum (Nova-Tech) and 400 μg/mL G-418 (Geneticin, Life Technologies), in an incubator at 37° C. with a humidified atmosphere of 5% CO2. Cells are typically sub-cultured twice per week. When the culture flask reaches 70%-90% confluency, the culture medium is removed, cells are rinsed twice with calcium and magnesium-free Dulbecco's phospate buffed saline (PBS) and a 0.05% trypsin/0.5 mM EDTA in HBSS solution is added until cells begin to round up (typically 2-5 min). Twenty four hours prior to the experiment, cells are removed from the culture flask and resuspended in Ham's F-12 medium supplemented with 10% heat inactivated fetal bovine serum, 50 μg/mL streptomycin, 50 U/mL penicillin, 10 mM HEPES, pH 7.2, and plated on 96 well, cell culture treated, flat bottomed trays (TPP 96, 4×10^6 cells per 96 well plate; 100 μL/well). Cells are loaded with ^86Rb^+ by incubating the cells overnight in culture medium containing 1 μCi/ml ^86RbCl (Perkin-Elmer) using a Labsystems Multidrop. On the day of the experiment, Culture media is removed and the cells are washed 4 times with 100 μL per well of zero Ca^2+ Earl's Balanced Salt Solution (EBSS)[composition (mM): NaCl (138), KCl (5.4), MgCl2 (1), glucose (10), HEPES (10), pH 7.4 with 10N NaOH]. Cells were preincubated with drug (0.01-30 μM) in low Ca^2+ EBSS, [composition (mM): NaCl (138), CaCl2 (0.25), KCl (5.4), MgCl2 (1), glucose (10), HEPES (10), pH 7.4 with 10N NaOH] for 6 min. ^86Rb^+ efflux is stimulated by exposing cells to regular EBSS [composition (mM): NaCl (138), CaCl2 (1.8), KCl (5.4), MgCl2 (1), glucose (10), HEPES (10), pH 7.4 with 10N NaOH] supplemented with […] ionomycin (Calbiochem), in the continued presence of drug. After a 10 min efflux period, the EBSS/ionomycin solution is removed from the cells and the ^86Rb^+ content determined by Cherenkov counting (Wallac 1450 Microbeta Trilux liquid scintillation and luminescence counter). Cells are then lysed with 100 μL 0.1% SDS solution per well, and the ^86Rb^+ content of the lysate determined. Percent ^86Rb^+ efflux is calculated according to the following formula: (^86Rb^+ content in EBSS/(^86Rb^+ content in EBSS+^86Rb^+ content of the lysate))×100.

Regarding `CONC(=N)C(c1ccc(F)cc1)(c1ccc(F)cc1)c1ccc(F)cc1` [Example 19, 2,2,2-Tris-(4-fluoro-phenyl)-N-methoxy-acetamidine], the pIC50 is 5.00 to 6.00.
Consider `CCONC(=N)C(c1ccc(F)cc1)(c1ccc(F)cc1)c1ccc(F)cc1` [Example 4, N-Ethoxy-2,2,2-tris-(4-fluoro-phenyl)-acetamidine], for which the pIC50 was > 6.30.
Under `CONC(=N)C(c1ccccc1)(c1ccc(F)cc1)c1ccc(F)cc1` [Example 8, 2,2-Bis-(4-fluoro-phenyl)-N-methoxy-2-phenyl-acetamidine] stands > 6.30; under `N=C(NO)C(c1cccc(F)c1)(c1cccc(F)n1)c1cccc(F)n1` [Example 14, 2-(3-Fluoro-phenyl)-2,2-bis-(6-fluoro-pyridin-2-yl)-N-hydroxy-acetamidine], 5.00 to 6.00.
Under `CC(C)ONC(=N)C(c1ccc(F)cc1)(c1ccc(F)cc1)c1ccc(F)cc1` [Example 20, 2,2,2-Tris-(4-fluoro-phenyl)-N-isopropoxy-acetamidine] stands 5.00 to 6.00; under `Cc1ccc(C(C(=N)N)(c2cccc(F)c2)c2cccc(F)c2)cn1` [Example 17, 2,2-Bis-(3-fluoro-phenyl)-2-(6-methyl-pyridin-3-yl)-acetamidine], 5.00 to 6.00; under `N=C(NN)C(c1ccccc1)(c1ccc(F)cc1)c1ccc(F)cc1` [Example 9, 2,2-Bis-(4-fluoro-phenyl)-N-amino-2-phenyl-acetamidine], 6.00 to 6.30.
As for `COC(=N)C(c1ccc(F)cc1)(c1ccc(F)cc1)c1ccc(F)cc1` [Example 27, 2,2,2-Tris-(4-fluoro-phenyl)-acetimidic acid methyl ester], the pIC50 is 5.00 to 6.00.
For `N=C(NO)C(c1ccccc1)(c1ccc(O)cc1)c1ccc(O)cc1` [Example 32, N-Hydroxy-2,2-bis-(4-hydroxy-phenyl)-2-phenyl-acetamidine], the pIC50 was < 5.00.
Under `N=C(NO)C(c1ccccc1)(c1ccc(F)cc1)c1ccccc1F` (centres unmarked) [Example 1, 2-(2-Fluoro-phenyl)-2-(4-fluoro-phenyl)-N-hydroxy-2-phenyl-acetamidine] stands > 6.30.
In the case of `CC(=NO)C(c1ccccc1)(c1ccccc1)c1ccccc1` [Example 34, 1,1,1-Triphenyl-propan-2-one oxime], the pIC50 was < 5.00.
As for `N=C(NO)C(c1ccccc1)(c1ccc(F)cc1)c1ccc(F)cc1` [Example 2, 2,2-Bis-(4-fluoro-phenyl)-N-hydroxy-2-phenyl-acetamidine], the pIC50 is > 6.30.
Under `ON=CC(c1ccccc1)(c1ccccc1)c1ccccc1Cl` [Example 6, (2-Chloro-phenyl)-diphenyl-acetaldehyde oxime] stands > 6.30; under `N=C(NO)C(c1ccccc1)(c1ccccc1)c1ccc(O)cc1` [Example 24, N-Hydroxy-2-(4-hydroxy-phenyl)-2,2-diphenyl-acetamidine], 5.00 to 6.00; under `COc1ccc(C(C(=N)NO)(c2ccccc2)c2ccccc2)cc1` [Example 12, N-Hydroxy-2-(4-methoxy-phenyl)-2,2-diphenyl-acetamidine], 6.00 to 6.30.
The value for `Cc1nc(C(c2ccccc2)(c2ccccc2)c2cccc(F)n2)no1` [Example 16, 2-Fluoro-6-[(5-methyl-[1,2,4]oxadiazol-3-yl)-diphenyl-methyl]-pyridine] was 5.00 to 6.00; that for `N=C(NO)C(c1ccc(F)cc1)(c1ccc(F)cc1)c1ccccc1Cl` [Example 5, 2-(2-Chloro-phenyl)-2,2-bis-(4-fluoro-phenyl)-N-hydroxy-acetamidine] was > 6.30.
Consider `COc1ccc(C(C(=N)NO)(c2ccccc2)c2ccc(OC)cc2)cc1` [Example 23, N-Hydroxy-2,2-bis-(4-methoxy-phenyl)-2-phenyl-acetamidine], for which the pIC50 is 5.00 to 6.00.
Under `N=C(NO)C(c1ccccc1)(c1ccccc1)c1ccccc1` [Example 11, N-Hydroxy-2,2,2-triphenyl-acetamidine] stands 6.00 to 6.30.
Consider `CON=C(C)C(c1ccccc1)(c1ccccc1)c1ccccc1` [Example 26, 1,1,1-Triphenyl-propan-2-one O-methyl-oxime], for which the pIC50 is 5.00 to 6.00.
Under `CON=CC(c1ccccc1)(c1ccccc1)c1ccccc1Cl` [Example 7, (2-Chloro-phenyl)-diphenyl-acetaldehyde O-methyl-oxime] stands > 6.30; under `N=C(N)C(c1cccc(F)n1)(c1cccc(F)n1)c1cccc(F)n1` [Example 15, 2,2,2-Tris-(6-fluoro-pyridin-2-yl)-acetamidine], 5.00 to 6.00; under `N=C(NO)C(c1ccccc1)(c1ccccc1)c1ccccc1Cl` [2-(2-Chloro-phenyl)-N-hydroxy-2,2-diphenyl-acetamidine], > 6.30.
Take `COC(=N)C(c1ccccc1)(c1ccc(F)cc1)c1ccc(F)cc1` [Example 28, 2,2-Bis-(4-fluoro-phenyl)-2-phenyl-acetimidic acid methyl ester]: the pIC50 was 5.00 to 6.00.
`N=C(NN)C(c1ccc(F)cc1)(c1ccc(F)cc1)c1ccc(F)cc1` [Example 10, 2,2,2-Tris-(4-fluoro-phenyl)-N-amino-acetamidine]: the pIC50 was 6.00 to 6.30.
The value for `N=C(N)C(c1ccc(F)cc1)(c1ccc(F)cc1)c1ccc(F)cc1` [Example 18, 2,2,2-Tris-(4-fluoro-phenyl)-acetamidine] was 5.00 to 6.00; that for `CN=C(OC)C(c1ccccc1)(c1ccc(F)cc1)c1ccc(F)cc1` [Example 29, 2,2-Bis-(4-fluoro-phenyl)-N-methyl-2-phenyl-acetimidic acid methyl ester] was 5.00 to 6.00.
The value for `N=C(N)C(c1ccccc1)(c1ccccc1)c1ccccc1` [Example 22, 2,2,2-Triphenyl-acetamidine] was 5.00 to 6.00; that for `CC(=NN)C(c1ccccc1)(c1ccccc1)c1ccccc1` [Example 25, (1-Methyl-2,2,2-triphenyl-ethylidene)-hydrazine] was 5.00 to 6.00; that for `COc1ccc(C(C(=N)NO)(c2ccc(OC)cc2)c2ccc(OC)cc2)cc1` [Example 31, N-Hydroxy-2,2,2-tris-(4-methoxy-phenyl)-acetamidine] was < 5.00.
Under `N=C(NO)C(c1cccc(F)n1)(c1cccc(F)n1)c1cccc(F)n1` [Example 30, 2,2,2-Tris-(6-fluoro-pyridin-2-yl)-N-hydroxy-acetamidine] stands < 5.00; under `N=C(NO)C(c1ccc(F)cc1)(c1ccc(F)cc1)c1ccc(F)cc1` [Example 3, 2,2,2-Tris-(4-fluoro-phenyl)-N-hydroxy-acetamidine], > 6.30; under `CCON=C(C)C(c1ccccc1)(c1ccccc1)c1ccccc1` [Example 33, 1,1,1-Triphenyl-propan-2-one O-ethyl-oxime], < 5.00.
For `N=C(N)C(c1ccccc1)(c1ccc(F)cc1)c1ccc(F)cc1` [Example 21, 2,2-Bis-(4-fluoro-phenyl)-2-phenyl-acetamidine], the pIC50 is 5.00 to 6.00.
Take `N=C(NO)C(c1ccccc1)(c1ccccc1)c1cccc(F)n1` [Example 13, 2-(6-Fluoro-pyridin-2-yl)-N-hydroxy-2,2-diphenyl-acetamidine]: the pIC50 is 6.00 to 6.30.

The values are drawn from patent publication US7709533B2, “Imines as ion channel modulators” (Icagen, Inc., priority 2005, dated 2010).
